According to ChEMBL document CHEMBL1136786, “2002 Medicinal Chemistry Division Award address: monoamine transporters and opioid receptors. Targets for addiction therapy” (J Med Chem, 2003):
Where “and” joins values, the source holds several entries; their conditions need not be identical. Equal values may be shown once. Calls of active or inactive are those of the source. No cut-off for these calls is given here.

Experiments:
[1] = molecular target: Sodium-dependent dopamine transporter (Rattus norvegicus, UniProt P23977); experiment: Inhibition of [3H]WIN-35428 binding at dopamine transporter was determined
[2] = molecular target: T1, Norepinephrine transporter (Rattus norvegicus, UniProt Q9WTR4); experiment: Inhibition of [3H]nisoxetine binding at norepinephrine transporter
[3] = molecular target: T1, Norepinephrine transporter; experiment: Affinity for norepinephrine transporter determined by [3H]nisoxetine displacement.
[4] = molecular target: Sodium-dependent serotonin transporter (Rattus norvegicus, UniProt P31652); experiment: Inhibition of [3H]paroxetine binding at serotonin transporter was determined
[5] = molecular target: D(2) dopamine receptor (Rattus norvegicus) (UniProt P61169); conditions: Nucleus accumbens
[6] = molecular target: D(2) dopamine receptor (Rattus norvegicus) (UniProt P61169)
[7] = system: Rattus norvegicus; experiment: Time taken to produce maximal locomotor activity at 30 min period in rat by intraperitoneal administration; format: functional
[8] = system: Rattus norvegicus; experiment: Maximal locomotor activity of compound compared as a percent of cocaine's effect in rat by oral administration; format: functional
[9] = system: Rattus norvegicus; experiment: Time taken to produce maximal locomotor activity at 30 min period in rat by oral administration; format: functional
[10] = system: Rattus norvegicus; experiment: Time during which activity returned to baseline level in rat by oral administration; format: functional
[11] = system: Rattus norvegicus; experiment: Effective dose of compound required to produce maximal locomotor activity in cocaine-trained rat by intraperitoneal administration; format: functional; conditions: ip
[12] = system: Rattus norvegicus; experiment: Maximal locomotor activity of compound compared as a percent of cocaine's effect in rat by intraperitoneal administration; format: functional
[13] = system: Rattus norvegicus; experiment: Effective dose of compound required to produce maximal locomotor activity in rat by intraperitoneal administration; format: functional; conditions: ip
[14] = system: Rattus norvegicus; experiment: Effective dose of compound required to produce maximal locomotor activity in cocaine-trained rat by oral administration; format: functional
[15] = system: Rattus norvegicus; experiment: Time during which activity returned to baseline level in rat by intraperitoneal administration; format: functional
[16] = system: Rattus norvegicus; experiment: Effective dose of compound required to produce maximal locomotor activity in rat by oral administration; format: functional
[17] = molecular target: Sodium-dependent noradrenaline transporter (Homo sapiens, UniProt P23975); experiment: Inhibition of Norepinephrine (NA) reuptake using cloned human Norepinephrine transporter was determined
[18] = molecular target: Sodium-dependent dopamine transporter (Homo sapiens, UniProt Q01959); experiment: Inhibition of dopamine (DA) reuptake using cloned human dopamine transporter was determined
[19] = molecular target: Sodium-dependent serotonin transporter (Homo sapiens, UniProt P31645); experiment: Inhibition of Serotonin (5-HT) reuptake using cloned human transporter was determined
[20] = species: Mus musculus; experiment: Antagonistic activity of nicotine-induced analgesia in mice was determined; format: functional
[21] = species: Mus musculus; experiment: Antagonistic activity of nicotine-induced hypothermia in mice was determined; format: functional
[22] = molecular target: Mu-type opioid receptor (Cavia porcellus) (UniProt P97266)
Description: Inhibition of [35S]GTP-gamma-S, binding in cloned Opioid receptor mu 1 stimulated by DAMGO

[23] = molecular target: Mu-type opioid receptor (Cavia porcellus) (UniProt P97266); experiment: Inhibition of [35S]GTP-gamma-S, binding in guines pig caudate stimulated by DAMGO for Opioid receptor mu 1; format: functional
[24] = molecular target: Kappa-type opioid receptor (Cavia porcellus) (UniProt P41144)
Description: Inhibition of [35S]GTP-gamma-S, binding in guines pig caudate stimulated by U50, 488 of Opioid receptor kappa 1

[25] = molecular target: Kappa-type opioid receptor (Cavia porcellus) (UniProt P41144); remark: listed apart in the source
Description: Inhibition of [35S]GTP-gamma-S, binding in cloned Opioid receptor kappa 1 stimulated by U69, 593

[26] = molecular target: Kappa-type opioid receptor (Cavia porcellus) (UniProt P41144); experiment: Inhibition of [35S]GTP-gamma-S, binding in guines pig caudate stimulated by U69, 593 of Opioid receptor kappa 1; format: functional
[27] = molecular target: Mu-type opioid receptor (Cavia porcellus, UniProt P97266); experiment: Inhibition of binding of [3H]DAMGO to Opioid receptor mu 1 in guinea pig membranes; format: cell membranes
[28] = molecular target: D(1A) dopamine receptor (Rattus norvegicus) (UniProt P18901); conditions: Striatum
[29] = molecular target: D(1A) dopamine receptor (Rattus norvegicus) (UniProt P18901); conditions: Striatum; remark: listed apart in the source
[30] = species: Rattus norvegicus; experiment: Half life of recovery for dopamine transporter in striatum was determined; format: functional
[31] = species: Rattus norvegicus; experiment: Degradation rate constant for dopamine transporter in striatum was determined; format: functional
[32] = species: Rattus norvegicus; experiment: Half life of recovery for dopamine transporter in nucleus accumbens was determined; format: functional
[33] = species: Rattus norvegicus; experiment: Degradation rate constant for dopamine transporter in nucleus accumbens was determined; format: functional

Chain of D(2) dopamine receptor (Rattus norvegicus) (P61169 whole entry): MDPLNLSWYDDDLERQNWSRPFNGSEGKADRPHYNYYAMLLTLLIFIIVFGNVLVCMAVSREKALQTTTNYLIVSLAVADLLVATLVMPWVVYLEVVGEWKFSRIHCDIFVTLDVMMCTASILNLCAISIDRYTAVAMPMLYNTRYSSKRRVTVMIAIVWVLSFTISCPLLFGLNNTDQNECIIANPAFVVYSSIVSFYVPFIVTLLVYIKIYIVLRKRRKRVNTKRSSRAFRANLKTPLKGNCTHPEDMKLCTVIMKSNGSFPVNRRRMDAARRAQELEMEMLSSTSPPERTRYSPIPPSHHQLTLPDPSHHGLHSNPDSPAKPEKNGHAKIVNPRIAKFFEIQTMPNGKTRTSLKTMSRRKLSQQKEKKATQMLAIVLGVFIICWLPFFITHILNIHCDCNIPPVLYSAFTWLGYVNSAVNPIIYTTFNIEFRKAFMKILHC
Chain of Mu-type opioid receptor (Cavia porcellus) (P97266 whole entry): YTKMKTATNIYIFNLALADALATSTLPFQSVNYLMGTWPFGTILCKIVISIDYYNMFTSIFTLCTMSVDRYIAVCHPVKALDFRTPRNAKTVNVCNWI
T1 sequence (Q9WTR4 whole entry): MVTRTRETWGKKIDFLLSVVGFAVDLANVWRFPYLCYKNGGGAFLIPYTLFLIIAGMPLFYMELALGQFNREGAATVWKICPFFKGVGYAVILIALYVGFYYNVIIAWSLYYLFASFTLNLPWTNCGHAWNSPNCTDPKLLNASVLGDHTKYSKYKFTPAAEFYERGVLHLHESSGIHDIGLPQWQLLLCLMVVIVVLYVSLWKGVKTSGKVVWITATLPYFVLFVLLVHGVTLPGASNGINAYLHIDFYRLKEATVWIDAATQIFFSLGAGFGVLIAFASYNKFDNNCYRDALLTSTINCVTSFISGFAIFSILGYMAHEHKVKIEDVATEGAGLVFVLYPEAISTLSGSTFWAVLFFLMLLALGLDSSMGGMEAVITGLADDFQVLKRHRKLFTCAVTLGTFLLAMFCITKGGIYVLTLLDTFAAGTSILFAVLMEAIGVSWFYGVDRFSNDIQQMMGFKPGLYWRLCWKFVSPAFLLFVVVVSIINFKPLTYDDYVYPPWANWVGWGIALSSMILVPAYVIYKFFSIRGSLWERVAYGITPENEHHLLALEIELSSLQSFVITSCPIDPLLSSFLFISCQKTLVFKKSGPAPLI
Chain of Kappa-type opioid receptor (Cavia porcellus) (P41144 whole entry): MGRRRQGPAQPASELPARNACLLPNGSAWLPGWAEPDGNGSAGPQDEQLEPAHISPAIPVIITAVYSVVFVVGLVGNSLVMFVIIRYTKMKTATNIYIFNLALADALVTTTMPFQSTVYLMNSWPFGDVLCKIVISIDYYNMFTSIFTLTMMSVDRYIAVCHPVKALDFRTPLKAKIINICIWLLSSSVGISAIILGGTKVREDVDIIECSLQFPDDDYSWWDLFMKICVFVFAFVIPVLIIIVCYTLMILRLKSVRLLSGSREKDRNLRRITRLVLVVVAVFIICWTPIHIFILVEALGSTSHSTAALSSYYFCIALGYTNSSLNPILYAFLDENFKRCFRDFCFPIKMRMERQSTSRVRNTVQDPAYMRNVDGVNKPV
Chain of D(1A) dopamine receptor (Rattus norvegicus) (P18901 whole entry): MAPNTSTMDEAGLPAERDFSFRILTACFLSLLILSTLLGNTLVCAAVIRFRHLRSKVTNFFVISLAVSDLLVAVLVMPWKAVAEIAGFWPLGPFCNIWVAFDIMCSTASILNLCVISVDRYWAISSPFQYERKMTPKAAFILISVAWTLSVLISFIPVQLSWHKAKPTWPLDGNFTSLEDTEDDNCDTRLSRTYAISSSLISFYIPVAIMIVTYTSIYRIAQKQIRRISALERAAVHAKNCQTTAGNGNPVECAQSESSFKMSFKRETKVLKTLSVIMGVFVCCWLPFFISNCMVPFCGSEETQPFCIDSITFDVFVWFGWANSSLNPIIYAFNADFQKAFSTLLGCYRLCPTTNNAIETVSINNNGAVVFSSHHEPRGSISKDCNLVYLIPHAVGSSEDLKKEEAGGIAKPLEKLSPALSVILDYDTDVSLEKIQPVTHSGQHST
Chain of Sodium-dependent dopamine transporter (Rattus norvegicus, UniProt P23977) (P23977 whole entry): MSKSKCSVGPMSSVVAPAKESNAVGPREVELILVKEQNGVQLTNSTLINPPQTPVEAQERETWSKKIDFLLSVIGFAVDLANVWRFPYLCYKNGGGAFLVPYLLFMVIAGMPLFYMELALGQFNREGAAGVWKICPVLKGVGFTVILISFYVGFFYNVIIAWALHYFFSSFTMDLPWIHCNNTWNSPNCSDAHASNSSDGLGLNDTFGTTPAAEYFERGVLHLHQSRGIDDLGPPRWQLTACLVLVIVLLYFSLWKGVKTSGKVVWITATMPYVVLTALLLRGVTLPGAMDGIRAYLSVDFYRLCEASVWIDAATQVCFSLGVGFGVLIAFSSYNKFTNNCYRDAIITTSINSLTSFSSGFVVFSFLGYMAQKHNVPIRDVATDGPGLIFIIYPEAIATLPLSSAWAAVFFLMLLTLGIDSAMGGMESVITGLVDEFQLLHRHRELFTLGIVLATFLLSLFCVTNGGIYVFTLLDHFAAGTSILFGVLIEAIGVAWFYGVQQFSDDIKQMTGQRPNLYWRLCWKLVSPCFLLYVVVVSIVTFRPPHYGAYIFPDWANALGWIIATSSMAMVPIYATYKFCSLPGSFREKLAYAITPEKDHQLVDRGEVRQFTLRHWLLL
Chain of Sodium-dependent serotonin transporter (Rattus norvegicus, UniProt P31652) (P31652 whole entry): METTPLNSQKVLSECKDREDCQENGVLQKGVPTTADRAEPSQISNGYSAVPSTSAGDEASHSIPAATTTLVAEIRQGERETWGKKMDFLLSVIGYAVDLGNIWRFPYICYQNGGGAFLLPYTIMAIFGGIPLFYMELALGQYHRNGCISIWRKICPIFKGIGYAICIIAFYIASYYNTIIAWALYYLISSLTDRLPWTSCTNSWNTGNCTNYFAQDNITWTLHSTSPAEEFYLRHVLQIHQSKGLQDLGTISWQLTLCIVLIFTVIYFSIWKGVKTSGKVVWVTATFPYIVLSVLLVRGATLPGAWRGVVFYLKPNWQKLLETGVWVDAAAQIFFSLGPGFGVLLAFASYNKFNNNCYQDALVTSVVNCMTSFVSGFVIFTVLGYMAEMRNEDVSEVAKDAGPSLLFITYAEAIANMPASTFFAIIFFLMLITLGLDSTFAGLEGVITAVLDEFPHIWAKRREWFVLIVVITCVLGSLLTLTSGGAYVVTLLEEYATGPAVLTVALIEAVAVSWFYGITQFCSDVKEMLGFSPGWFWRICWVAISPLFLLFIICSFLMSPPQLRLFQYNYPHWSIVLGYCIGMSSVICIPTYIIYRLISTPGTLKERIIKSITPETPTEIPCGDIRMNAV
Chain of Mu-type opioid receptor (P97266 whole entry): as the sequence (P97266 whole entry) above
Chain of Sodium-dependent dopamine transporter (Homo sapiens, UniProt Q01959) (Q01959 whole entry): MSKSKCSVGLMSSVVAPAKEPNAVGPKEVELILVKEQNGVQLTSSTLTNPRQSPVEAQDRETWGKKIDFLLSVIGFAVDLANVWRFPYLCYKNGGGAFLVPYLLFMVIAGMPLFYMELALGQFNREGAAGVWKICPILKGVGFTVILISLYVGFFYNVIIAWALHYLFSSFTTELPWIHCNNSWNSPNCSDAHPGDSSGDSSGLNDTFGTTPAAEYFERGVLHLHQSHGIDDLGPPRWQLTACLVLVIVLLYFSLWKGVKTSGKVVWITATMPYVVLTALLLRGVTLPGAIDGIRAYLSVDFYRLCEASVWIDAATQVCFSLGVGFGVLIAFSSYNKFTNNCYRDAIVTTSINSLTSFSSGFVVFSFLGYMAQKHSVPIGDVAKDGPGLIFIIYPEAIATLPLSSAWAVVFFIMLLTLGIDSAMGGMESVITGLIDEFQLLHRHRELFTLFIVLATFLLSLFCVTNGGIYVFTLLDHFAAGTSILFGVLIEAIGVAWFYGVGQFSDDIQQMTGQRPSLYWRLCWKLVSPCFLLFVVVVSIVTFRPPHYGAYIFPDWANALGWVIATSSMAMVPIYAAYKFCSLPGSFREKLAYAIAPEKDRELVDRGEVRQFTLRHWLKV
Chain of Sodium-dependent serotonin transporter (Homo sapiens, UniProt P31645) (P31645 whole entry): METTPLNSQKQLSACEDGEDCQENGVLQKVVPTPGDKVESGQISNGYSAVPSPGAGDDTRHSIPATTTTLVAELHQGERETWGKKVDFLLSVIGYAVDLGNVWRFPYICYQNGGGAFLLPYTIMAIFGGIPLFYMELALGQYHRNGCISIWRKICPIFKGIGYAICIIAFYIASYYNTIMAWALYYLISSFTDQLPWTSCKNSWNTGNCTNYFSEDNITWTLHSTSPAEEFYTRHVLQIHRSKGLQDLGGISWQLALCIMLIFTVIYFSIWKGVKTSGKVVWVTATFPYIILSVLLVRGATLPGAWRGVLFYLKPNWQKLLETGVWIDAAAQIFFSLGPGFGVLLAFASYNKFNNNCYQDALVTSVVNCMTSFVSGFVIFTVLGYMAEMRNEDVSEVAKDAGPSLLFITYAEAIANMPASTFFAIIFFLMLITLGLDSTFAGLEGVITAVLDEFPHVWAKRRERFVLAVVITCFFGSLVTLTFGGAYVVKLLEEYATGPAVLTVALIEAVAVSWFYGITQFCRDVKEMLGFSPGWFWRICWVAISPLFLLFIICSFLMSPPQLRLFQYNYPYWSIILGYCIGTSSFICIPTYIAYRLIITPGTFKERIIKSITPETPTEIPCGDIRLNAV

Row | Compound | IC50 [1] [nM] | IC50 [2] [nM] | Ki [3] [nM] | IC50 [4] [nM] | Ki [4] [nM] | Peak time [7] [min] | ED50 [11] [mg/kg] | Maximal locomotor activity (% of cocaine) [12] [%] | ED50 [13] [mg/kg] | Time [15] [h] | other results
1 | CN1C2CC[C@@H]1C[C@H](c1ccc(Cl)cc1)C2C(=O)OCCc1ccc(N)cc1 (stereo partly specified) | 2.16 |  |  |  |  |  |  |  |  |  | 
2 | C=C(C)c1ccc([C@H]2C[C@H]3CCC(N3)C2C(=O)OC)cc1 (stereo partly specified) | 23 | 144 | 87 | 0.6 | 0.055 |  |  |  |  |  | 
3 | CCc1cc(Cl)c(OC)c(C(=O)NC[C@@H]2CCCN2CC)c1O |  |  |  |  |  |  |  |  |  |  | NC [5]: inactive; NC [6]: inactive
4 | CN1C2CC[C@@H]1C[C@H](c1ccc(Cl)cc1)C2C(=O)N1CCCC1 (stereo partly specified) | 1.38 | 3940 | 2370 | 12400 | 1130 |  |  |  |  |  | 
5 | Cc1ccc([C@H]2C[C@H]3CCC(C2C(=O)OC(C)C)N3C)cc1 (stereo partly specified) | 6.45 | 1930 | 1160 | 6090 | 554 | 10 | 4.4 | 103 | 3.1 | >4 | Cocaine [8]: 116%; Peak time [9]: 100 min; Time [10]: >4 h; ED50 [14]: 5.7 mg/kg; ED50 [16]: 4.7 mg/kg
6 | COC(=O)C1C2CC[C@H](C[C@@H]1c1ccc(Cl)c(C)c1)N2C (stereo partly specified) | 0.81 | 36.2 | 2.8 | 10.5 | 0.95 | 30 | 0.21 | 75 | 2.2 | >4 | IC50 [17]: 0.8 nM; IC50 [18]: 0.6 nM; IC50 [19]: 1 nM; AD50 [20]: 3.5 mM/kg; AD50 [21]: 1.5 mM/kg
7 | Oc1ccc2c3c1O[C@H]1c4[nH]c5c(c4C[C@@]4(O)[C@@H](C2)N(CC2CC2)CC[C@]314)C[C@@]1(O)[C@H]2Cc3ccc(O)c4c3[C@@]1(CCN2CC1CC1)[C@H]5O4 |  |  |  |  |  |  |  |  |  |  | Ke [22]: 15.8 nM; Ke [23]: 16.8 nM; Ke [24]: 0.038 nM; Ke [25]: 0.07 nM
8 | Cc1ccccc1/C=C/CN1CC[C@@](C)(c2cccc(O)c2)[C@@H](C)C1 |  |  |  |  |  |  |  |  |  |  | Ke [26]: 0.17 nM; Ki [27]: 0.86 nM; Ke [23]: 0.013 nM
9 | Cc1ccc(-c2cc(C3C4CC[C@H](C[C@@H]3c3ccc(Cl)cc3)N4C)on2)cc1 (stereo partly specified) | 4.09 | 1710 | 1030 | 5740 | 522 | 70 | 5.6 | 71 | 4.8 | >4 | Cocaine [8]: 77%; Peak time [9]: 60 min; Time [10]: >4 h; ED50 [14]: 3.54 mg/kg; ED50 [16]: 14.4 mg/kg
10 | CN(C)C(=O)C1C2CC[C@H](C[C@@H]1c1ccc(Cl)cc1)N2C (stereo partly specified) | 1.38 | 940 | 566 | 1080 | 98 |  |  |  |  |  | 
11 | COC(=O)C1C2CC[C@H](C[C@@H]1c1cccc(I)c1)N2 (stereo partly specified) | 26 | 1600 | 964 | 39 | 3.6 |  |  |  |  |  | 
12 | COC(=O)C1C2CC[C@H](C[C@@H]1c1ccc(C)cc1)N2 (stereo partly specified) | 33.6 | 9 | 5.4 | 500 | 46 |  |  |  |  |  | 
13 | COC(=O)C1C2CC[C@H](C[C@H]1c1ccc(Br)cc1)N2C (stereo partly specified) |  |  |  | 10.6 | 0.96 |  |  |  |  |  | 
14 | COC(=O)[C@@H]1C2CC[C@H](C[C@@H]1c1ccccc1)N2C.Cl |  |  | 554 |  |  | 10 | 0.35 | 146 | 2.1 | 2 | 
15 | C[C@H]1CN(C/C=C/c2ccccc2)CC[C@@]1(C)c1cccc(O)c1 |  |  |  |  |  |  |  |  |  |  | Ke [26]: 1.04 nM; Ki [27]: 0.74 nM; Ke [23]: 0.039 nM
16 | C[C@H]1C2CCCC1(c1cccc(O)c1)CCN2CCc1ccccc1 (stereo partly specified) |  |  |  |  |  |  |  |  |  |  | Ke [26]: 1.34 nM; Ke [23]: 0.338 nM
17 | CN1CCc2cc(Cl)c(O)cc2[C@@H](c2ccccc2)C1 |  |  |  |  |  |  |  |  |  |  | NC [28]: inactive; NC [29]: inactive
18 | COC(=O)[C@H]1[C@@H](OC(=O)c2ccccc2)C[C@@H]2CC[C@H]1N2C [COCAINE] |  |  |  |  |  | 0 | 2.5 | 100 | 21 | <2 | Change [30]: 22%; Change [31]: -17% and -16%; Change [32]: 43%; Change [33]: -30% and -27%
19 | CN1C2CCC1C(C(=O)Oc1ccccc1)C(c1ccc(Cl)cc1)C2 (stereo unspecified) |  |  | 1780 |  | 214 | 30 | 2.28 | 128 | 0.93 | >4 | 
